Source: US3992391A, “1,3-Disubstituted thiourea compounds and preparation thereof” (priority 1972, dated 1976)
Where a name gives a salt, the structure may show the parent alone.

What was measured:
[1] = Brain water content after triethyl tin sulfate cerebral edema; format: in vivo; conditions: rats; for H2O, Gray: gray matter; for H2O, White: white matter
Experimental: (§1) Cerebral edema was induced in rats by a triethyl tin sulfate (5.0 mg/kg, i.p.) made on the whole brain. Edema was measured by the increase in water content, lactate, phosphorylase activity and the decrease in glycogen, Na^+, K^+ - ATPase activity of the whole brain.
(§2) 1-(3'-Pyridyl)-3-(2'-hydroxyethyl)thiourea HCl was given 1 hour before and 24, 48 hours after the lesion treatment and the animals were killed by decapitation 72 hours after the lesion treatment.

phosphorylase = assay: Brain phosphorylase after triethyl tin sulfate cerebral edema; format: in vivo; conditions: rats
Experimental: as §1, §2

[2] = tested on: distribution of ^14 C - glucose to brain; assay: Distribution of ^14 C - glucose(U) to brain; format: in vivo, mouse; conditions: for ^14 C-glucose, Brain / ^14 C-glucose, Brain/Plasma / ^14 C-glucose, Plasma: mouse, 300 mg/kg oral
Experimental: ^14 C - glucose(U) was given intravenously (1.0 μC/mouse), and the animals were killed by decapitation 10 minutes after ^14 C - glucose administration. 1-(3'-Pyridyl)-3-(2'-hydroxyethyl)thiourea HCl was given orally 300 mg/kg before ^14 C - glucose administration.

[3] = Hypoxia test (mouse), reduced pressure, survival time; format: in vivo, male mice (dd-strain); conditions: reduced pressure 145 mmHg
Experimental: Male mice (dd-strain) and rats (wister-strain) were taken to a closed room which was filled with a gas mixture consisting of 1.5 % oxygen and 98.5 % nitrogen, or was conditioned in reduced atmospheric pressure (145 mmHg). In the other hand, mice and rats were given sodium cyanide (10 mg/kg, i.p.). These animals died after a few minutes in such conditions. 1-(3'-Pyridyl)-3-(2'-hydroxyethyl)thiourea HCl was given 1 hour before these hypoxia tests.
In the Tables data mean the increase percent of the survival time to that of control.

OCCNC(=S)Nc1cccnc1 [1-(3'-pyridyl)-3-(2'-hydroxyethyl)thiourea hydrochloride]
H2O, Gray ([1]; 30 mg/kg p.o.): 81.6% | H2O, White ([1]; 30 mg/kg p.o.): 79.5% | H2O, Gray ([1]; 100 mg/kg p.o.): 80.2% | H2O, White ([1]; 100 mg/kg p.o.): 78.3% | H2O, Gray ([1]; 300 mg/kg p.o.): 79.4% | H2O, White ([1]; 300 mg/kg p.o.): 77.8% | Phosphorylase A/T × 100 (Active phosphorylase/Total phosphorylase) (phosphorylase; 30 mg/kg p.o.): 73.3 | Phosphorylase, Active (phosphorylase; 30 mg/kg p.o.): 0.197 units/g | Phosphorylase A/T × 100 (Active phosphorylase/Total phosphorylase) (phosphorylase; 100 mg/kg p.o.): 71.5 | Phosphorylase, Active (phosphorylase; 100 mg/kg p.o.): 0.192 units/g | Phosphorylase A/T × 100 (Active phosphorylase/Total phosphorylase) (phosphorylase; 300 mg/kg p.o.): 67.8 | Phosphorylase, Active (phosphorylase; 300 mg/kg p.o.): 0.187 units/g | distribution of ^14 C - glucose to brain ([2]; 300 mg/kg orally, given 60 - 120 minutes before ^14 C - glucose): increased | ^14 C-glucose, Brain ([2]; 30 min before ^14 C-glucose): 88.90 ± 12.69 × 10^3 dpm/g | ^14 C-glucose, Brain/Plasma ([2]; 30 min before ^14 C-glucose): 2.52 ± 0.59 | ^14 C-glucose, Plasma ([2]; 30 min before ^14 C-glucose): 35.22 ± 2.36 × 10^3 dpm/ml | ^14 C-glucose, Brain ([2]; 60 min before ^14 C-glucose): 93.76 ± 5.33 × 10^3 dpm/g | ^14 C-glucose, Brain/Plasma ([2]; 60 min before ^14 C-glucose): 2.48 ± 0.44 | ^14 C-glucose, Plasma ([2]; 60 min before ^14 C-glucose): 37.88 ± 3.15 × 10^3 dpm/ml | ^14 C-glucose, Brain ([2]; 120 min before ^14 C-glucose): 96.80 ± 6.80 × 10^3 dpm/g | ^14 C-glucose, Brain/Plasma ([2]; 120 min before ^14 C-glucose): 2.69 ± 0.15 | ^14 C-glucose, Plasma ([2]; 120 min before ^14 C-glucose): 35.93 ± 0.95 × 10^3 dpm/ml | increase percent of the survival time to that of control ([3]; 30 mg/kg i.v.): 141% | increase percent of the survival time to that of control ([3]; 30 mg/kg p.o.): 35% | increase percent of the survival time to that of control ([3]; 100 mg/kg p.o.): 64% | increase percent of the survival time to that of control ([3]; 100 mg/kg s.c.): 128% | increase percent of the survival time to that of control ([3]; 300 mg/kg p.o.): 132%
